Read-outs that look alike come from different tables or passages of the source.
Experiments:
[1] = Solubility of Biotin in aqueous niacinamide / sodium ascorbyl phosphate solutions (addition until turbid); type: physicochemical
Procedure: The solubility of Biotin was assessed in aqueous niacinamide (Niacinamide PC, DSM Nutritional Products)/sodium ascorbyl phosphate (STAY-C® 50, DSM Nutritional Products) solutions in different concentration. As reference, the solubility of biotin in water was assessed.
After the addition of 5 g of water into a 10 ml glass vial, STAY-C® 50 and Niacinamide PC were added in order to yield the ratios and wt. % as indicated in table 1. The mixtures were stirred with a magnetic stirrer at RT until STAY-C® 50 and Niacinamide PC were completely dissolved. Then, biotin was added in about 1 mg steps to the mixture until the solution becomes turbid. This experiment was repeated twice.
The sum of the amount of biotin which was added before the turbidity occurred is taken as the solubility of Biotin.

[2] = hot water; cited from earlier work

O=C(O)CCCC[C@@H]1SC[C@@H]2NC(=O)N[C@@H]21 [Biotin]
Solubility of Biotin ([1]; Reference: water without STAY-C 50 and Niacinamide PC, RT): 0.022 wt. % | Solubility of Biotin ([1]; water, STAY-C 50 0.1 wt. %, Niacinamide PC 1 wt. %, ratio 1:10, RT): 0.15 wt. % | Solubility of Biotin ([1]; water, STAY-C 50 0.1 wt. %, Niacinamide PC 3 wt. %, ratio 1:30, RT): 0.17 wt. % | Solubility of Biotin ([1]; water, STAY-C 50 0.1 wt. %, Niacinamide PC 5 wt. %, ratio 1:50, RT): 0.20 wt. % | Solubility of Biotin ([1]; water, STAY-C 50 0.1 wt. %, Niacinamide PC 10 wt. %, ratio 1:100, RT): 0.26 wt. % | Solubility of Biotin ([1]; water, STAY-C 50 0.5 wt. %, Niacinamide PC 1 wt. %, ratio 1:2, RT): 0.33 wt. % | Solubility of Biotin ([1]; water, STAY-C 50 0.5 wt. %, Niacinamide PC 3 wt. %, ratio 1:6, RT): 0.38 wt. % | Solubility of Biotin ([1]; water, STAY-C 50 0.5 wt. %, Niacinamide PC 5 wt. %, ratio 1:10, RT): 0.41 wt. % | Solubility of Biotin ([1]; water, STAY-C 50 0.5 wt. %, Niacinamide PC 10 wt. %, ratio 1:20, RT): 0.47 wt. % | Solubility of Biotin ([1]; water, STAY-C 50 1.0 wt. %, Niacinamide PC 1 wt. %, ratio 1:1, RT): 0.64 wt. % | Solubility of Biotin ([1]; water, STAY-C 50 1.0 wt. %, Niacinamide PC 3 wt. %, ratio 1:3, RT): 0.66 wt. % | Solubility of Biotin ([1]; water, STAY-C 50 1.0 wt. %, Niacinamide PC 5 wt. %, ratio 1:5, RT): 0.70 wt. % | Solubility of Biotin ([1]; water, STAY-C 50 1.0 wt. %, Niacinamide PC 10 wt. %, ratio 1:10, RT): 0.76 wt. % | Solubility of Biotin ([1]; water, STAY-C 50 3.0 wt. %, Niacinamide PC 1 wt. %, ratio 3:1, RT): 1.53 wt. % | Solubility of Biotin ([1]; water, STAY-C 50 3.0 wt. %, Niacinamide PC 3 wt. %, ratio 1:1, RT): 1.65 wt. % | Solubility of Biotin ([1]; water, STAY-C 50 3.0 wt. %, Niacinamide PC 5 wt. %, ratio 1:1.6, RT): 1.71 wt. % | Solubility of Biotin ([1]; water, STAY-C 50 3.0 wt. %, Niacinamide PC 10 wt. %, ratio 1:3.3, RT): 1.78 wt. % | Solubility of Biotin [2]: about 0.02 g/100 ml
